Results published in patent publication US20230398130A1, “METHODS AND COMPOSITIONS FOR DIFFERENTIATING STEM CELLS” (Massachusetts Institute of Technology, priority 2020, published 2023).

Assays:
[1] = system: ISC-enriched organoids; test: Primary screen, 384-well 2.5-D organoid differentiation (ENR+CD, 6 days, Target Selective Inhibitor Library, vs whole-plate median): ATP (CellTiter-Glo 3D, CTG); details: for Dose.FC.CTG: FC vs plate median; for Dose.FC.CTG (log 2 fold change) / Dose.FC.CTG (log 2 fold change, ATP): vs plate median; for SSMD.CTG: strictly standardized mean difference
[2] = system: ISC-enriched organoids; test: Primary screen, 384-well 2.5-D organoid differentiation (ENR+CD, 6 days): basal lysozyme secretion (LYZ.NS); type: cell-based, murine; details: for Dose.FC.LYZ.NS: FC vs plate median; for Dose.FC.LYZ.NS (log 2 fold change) / Dose.FC.LYZ.NS (log 2 fold change, basal lysozyme secretion): vs plate median; for SSMD.LYZ.NS: strictly standardized mean difference
Source text: (§1) High-throughput screening.

[3] = system: ISC-enriched organoids; test: Primary screen, 384-well 2.5-D organoid differentiation (ENR+CD, 6 days): carbachol-induced lysozyme secretion (LYZ.S); type: cell-based, murine; details: for Dose.FC.LYZ.S / Dose.FC.LYZ.S (log 2 fold change) / Z.LYZ.S / SSMD.LYZ.S: primary screen; for Dose.FC.LYZ.S: FC vs plate median; for Dose.FC.LYZ.S (log 2 fold change) / Dose.FC.LYZ.S (log 2 fold change, carbachol-induced lysozyme secretion): vs plate median; for Z.LYZ.S: standard z score; for SSMD.LYZ.S: strictly standardized mean difference
Source text: as §1

[4] = dose 0.08 uM (1st of 4 lines per treatment; dose not printed in this part)
[5] = dose 0.40 uM (2nd of 4 lines per treatment; dose not printed in this part)
[6] = dose 2.00 uM (3rd of 4 lines per treatment; dose not printed in this part)
[7] = dose 10.00 uM (4th of 4 lines per treatment; dose not printed in this part)
[8] = primary screen, dose 0.08 uM, ENR+CD 6 days
[9] = primary screen, dose 0.08 uM, standard z score of FC
[10] = primary screen, dose 0.40 uM, ENR+CD 6 days
[11] = primary screen, dose 0.40 uM, standard z score of FC
[12] = primary screen, dose 2.00 uM, ENR+CD 6 days
[13] = primary screen, dose 2.00 uM, standard z score of FC
[14] = primary screen, dose 10.00 uM, ENR+CD 6 days
[15] = primary screen, dose 10.00 uM, standard z score of FC
[16] = Dose 0.08 uM, primary screen, standard z score
[17] = Dose 0.40 uM, primary screen, standard z score
[18] = Dose 2.00 uM, primary screen, standard z score
[19] = Dose 10.00 uM, primary screen, standard z score
[20] = primary screen, 1st of the 4 dose lines of the treatment (dose not given)
[21] = primary screen, 2nd of the 4 dose lines of the treatment (dose not given)
[22] = primary screen, 3rd of the 4 dose lines of the treatment (dose not given)
[23] = primary screen, 4th of the 4 dose lines of the treatment (dose not given)
[24] = 1st of the 4 dose lines of the treatment (dose not given)
[25] = 2nd of the 4 dose lines of the treatment (dose not given)
[26] = 3rd of the 4 dose lines of the treatment (dose not given)
[27] = 4th of the 4 dose lines of the treatment (dose not given)

CC(C)N(CC[C@H](c1ccccc1)c1cc(CO)ccc1O)C(C)C [4CE°8C]
SSMD.CTG_Rep (strictly standardized mean difference) [1, 4]: −0.402 | SSMD.CTG_Rep (strictly standardized mean difference) [1, 5]: 0.023 | SSMD.CTG_Rep (strictly standardized mean difference) [1, 6]: −0.340 | SSMD.CTG_Rep (strictly standardized mean difference) [1, 7]: −0.109 | Dose.FC.CTG [1, 8]: −0.111 log 2 fold change | Z.CTG [1, 9]: −0.265 | Dose.FC.CTG [1, 10]: 0.007 log 2 fold change | Z.CTG [1, 11]: 0.018 | Dose.FC.CTG [1, 12]: −0.162 log 2 fold change | Z.CTG [1, 13]: −0.387 | Dose.FC.CTG [1, 14]: −0.039 log 2 fold change | Z.CTG [1, 15]: −0.094 | SSMD.LYZ.NS_Rep (strictly standardized mean difference) [2, 4]: 0.497 | SSMD.LYZ.NS_Rep (strictly standardized mean difference) [2, 5]: 0.226 | SSMD.LYZ.NS_Rep (strictly standardized mean difference) [2, 6]: 0.128 | SSMD.LYZ.NS_Rep (strictly standardized mean difference) [2, 7]: −0.861 | Dose.FC.LYZ.NS [2, 8]: 0.069 log 2 fold change | Z.LYZ.NS [2, 9]: 0.601 | Dose.FC.LYZ.NS [2, 10]: 0.047 log 2 fold change | Z.LYZ.NS [2, 11]: 0.413 | Dose.FC.LYZ.NS [2, 12]: 0.016 log 2 fold change | Z.LYZ.NS [2, 13]: 0.138 | Dose.FC.LYZ.NS [2, 14]: −0.095 log 2 fold change | Z.LYZ.NS [2, 15]: −0.827 | SSMD.LYZ.S_Rep (strictly standardized mean difference) [3, 4]: 0.194 | Z.LYZ.S (standard z score) [3, 4]: 0.205 | SSMD.LYZ.S_Rep (strictly standardized mean difference) [3, 5]: 0.053 | Z.LYZ.S (standard z score) [3, 5]: 0.073 | SSMD.LYZ.S_Rep (strictly standardized mean difference) [3, 6]: −0.217 | Z.LYZ.S (standard z score) [3, 6]: −0.358 | SSMD.LYZ.S_Rep (strictly standardized mean difference) [3, 7]: −0.707 | Z.LYZ.S (standard z score) [3, 7]: −0.836 | Dose.FC.LYZ.S ([3]; dose 0.08 uM, ENR+CD 6 days): 0.032 log 2 fold change | Dose.FC.LYZ.S ([3]; dose 0.40 uM, ENR+CD 6 days): 0.011 log 2 fold change | Dose.FC.LYZ.S ([3]; dose 2.00 uM, ENR+CD 6 days): −0.055 log 2 fold change | Dose.FC.LYZ.S ([3]; dose 10.00 uM, ENR+CD 6 days): −0.129 log 2 fold change

O=C(Nc1ccccc1-c1cn2c(CN3CCNCC3)csc2n1)c1cnc2ccccc2n1 [SRT1720]
Z.CTG (standard z score) ([1]; Dose 0.08 uM, primary screen): 1.264 | Dose.FC.CTG (log 2 fold change) ([1]; Dose 0.08 uM, primary screen): 0.529 | Z.CTG (standard z score) ([1]; Dose 0.40 uM, primary screen): 0.940 | Dose.FC.CTG (log 2 fold change) ([1]; Dose 0.40 uM, primary screen): 0.394 | Z.CTG (standard z score) ([1]; Dose 2.00 uM, primary screen): 0.810 | Dose.FC.CTG (log 2 fold change) ([1]; Dose 2.00 uM, primary screen): 0.339 | Z.CTG (standard z score) ([1]; Dose 10.00 uM, primary screen): −2.427 | Dose.FC.CTG (log 2 fold change) ([1]; Dose 10.00 uM, primary screen): −1.016 | Z.LYZ.NS (standard z score) ([2]; Dose 0.08 uM, primary screen): 1.495 | Dose.FC.LYZ.NS (log 2 fold change) ([2]; Dose 0.08 uM, primary screen): 0.172 | Z.LYZ.NS (standard z score) ([2]; Dose 0.40 uM, primary screen): 0.972 | Dose.FC.LYZ.NS (log 2 fold change) ([2]; Dose 0.40 uM, primary screen): 0.112 | Z.LYZ.NS (standard z score) ([2]; Dose 2.00 uM, primary screen): 0.613 | Dose.FC.LYZ.NS (log 2 fold change) ([2]; Dose 2.00 uM, primary screen): 0.070 | Z.LYZ.NS (standard z score) ([2]; Dose 10.00 uM, primary screen): −0.906 | Dose.FC.LYZ.NS (log 2 fold change) ([2]; Dose 10.00 uM, primary screen): −0.104 | Dose.FC.LYZ.S (log 2 fold change) ([3]; Dose 0.08 uM): 0.190 | Dose.FC.LYZ.S (log 2 fold change) ([3]; Dose 0.40 uM): 0.099 | Dose.FC.LYZ.S (log 2 fold change) ([3]; Dose 2.00 uM): 0.051 | Dose.FC.LYZ.S (log 2 fold change) ([3]; Dose 10.00 uM): −0.193

O=C(O)CCc1ccc(NCc2cccc(Oc3ccccc3)c2)cc1 [GW9508]
Dose.FC.CTG ([1]; Dose 0.08 uM, primary screen): 0.063 log 2 fold change | Z.CTG [1, 16]: 0.151 | Dose.FC.CTG ([1]; Dose 0.40 uM, primary screen): 0.174 log 2 fold change | Z.CTG [1, 17]: 0.417 | Dose.FC.CTG ([1]; Dose 2.00 uM, primary screen): −0.001 log 2 fold change | Z.CTG [1, 18]: −0.003 | Dose.FC.CTG ([1]; Dose 10.00 uM, primary screen): −0.059 log 2 fold change | Z.CTG [1, 19]: −0.140 | SSMD.CTG [1, 20]: 0.128 | SSMD.CTG [1, 21]: 0.384 | SSMD.CTG [1, 22]: −0.003 | SSMD.CTG [1, 23]: −0.134 | Dose.FC.LYZ.NS ([2]; Dose 0.08 uM, primary screen): 0.075 log 2 fold change | Z.LYZ.NS [2, 16]: 0.650 | Dose.FC.LYZ.NS ([2]; Dose 0.40 uM, primary screen): 0.019 log 2 fold change | Z.LYZ.NS [2, 17]: 0.169 | Dose.FC.LYZ.NS ([2]; Dose 2.00 uM, primary screen): −0.011 log 2 fold change | Z.LYZ.NS [2, 18]: −0.092 | Dose.FC.LYZ.NS ([2]; Dose 10.00 uM, primary screen): −0.040 log 2 fold change | Z.LYZ.NS [2, 19]: −0.350 | SSMD.LYZ.NS [2, 20]: 0.536 | SSMD.LYZ.NS [2, 21]: 0.122 | SSMD.LYZ.NS [2, 22]: −0.064 | SSMD.LYZ.NS [2, 23]: −0.358 | Dose.FC.LYZ.S ([3]; Dose 0.08 uM): 0.067 log 2 fold change | Dose.FC.LYZ.S ([3]; Dose 0.40 uM): 0.049 log 2 fold change | Dose.FC.LYZ.S ([3]; Dose 2.00 uM): 0.000 log 2 fold change | Dose.FC.LYZ.S ([3]; Dose 10.00 uM): −0.045 log 2 fold change | Z.LYZ.S [3, 24]: 0.434 | Z.LYZ.S [3, 25]: 0.316 | Z.LYZ.S [3, 26]: 0.003 | Z.LYZ.S [3, 27]: −0.289 | SSMD.LYZ.S [3, 24]: 0.329 | SSMD.LYZ.S [3, 25]: 0.225 | SSMD.LYZ.S [3, 26]: 0.002 | SSMD.LYZ.S [3, 27]: −0.176

VU 0364439
Z.CTG (standard z score) ([1]; dose 0.08 uM): 0.058 | Dose.FC.CTG (log 2 fold change, ATP) ([1]; dose 0.08 uM): 0.024 | Z.CTG (standard z score) ([1]; dose 0.40 uM): −0.289 | Dose.FC.CTG (log 2 fold change, ATP) ([1]; dose 0.40 uM): −0.121 | Z.CTG (standard z score) ([1]; dose 2.00 uM): −0.616 | Dose.FC.CTG (log 2 fold change, ATP) ([1]; dose 2.00 uM): −0.258 | Z.CTG (standard z score) ([1]; dose 10.00 uM): 0.022 | Dose.FC.CTG (log 2 fold change, ATP) ([1]; dose 10.00 uM): 0.009 | Z.LYZ.NS (standard z score) ([2]; dose 0.08 uM): 0.715 | Dose.FC.LYZ.NS (log 2 fold change, basal lysozyme secretion) ([2]; dose 0.08 uM): 0.082 | Z.LYZ.NS (standard z score) ([2]; dose 0.40 uM): 0.099 | Dose.FC.LYZ.NS (log 2 fold change, basal lysozyme secretion) ([2]; dose 0.40 uM): 0.011 | Z.LYZ.NS (standard z score) ([2]; dose 2.00 uM): 0.089 | Dose.FC.LYZ.NS (log 2 fold change, basal lysozyme secretion) ([2]; dose 2.00 uM): 0.010 | Z.LYZ.NS (standard z score) ([2]; dose 10.00 uM): −0.476 | Dose.FC.LYZ.NS (log 2 fold change, basal lysozyme secretion) ([2]; dose 10.00 uM): −0.055 | Dose.FC.LYZ.S (log 2 fold change, carbachol-induced lysozyme secretion) ([3]; dose 0.08 uM): 0.108 | Dose.FC.LYZ.S (log 2 fold change, carbachol-induced lysozyme secretion) ([3]; dose 0.40 uM): 0.124 | Dose.FC.LYZ.S (log 2 fold change, carbachol-induced lysozyme secretion) ([3]; dose 2.00 uM): −0.043 | Dose.FC.LYZ.S (log 2 fold change, carbachol-induced lysozyme secretion) ([3]; dose 10.00 uM): −0.038
